The record followed here is patent publication US7456154B2 (priority 2001, dated 2008).

In one data set the test system is MG patients. The data set is described as follows: Phase Ib clinical trial of oral hEN101 in MG patients (QMG score). Format: in vivo, human. The following applies: for Decrease in mean total QMG score from baseline: baseline mean total score 13.2. Here is the method:
Protocol for Phase Ib Clinical Trial of MG patients using hEN101: Patients were hospitalized and pyridostigmine was discontinued for 12-18 hours before EN101 testing. Assessment of MG status was performed first at entry, then after pyridostigmine stoppage, and regularly after EN101 treatment using a Quantitative MG (QMG) score. Escalating oral doses of EN101 (10-150 μg/kg) were given in the first day (day 1) followed by a daily dose of 500 μg/kg for 3 days (days 2-4). Days 5 and 6 were washout period without pyridostigmine, and restitution of pyridostigmine occurred when it became necessary. Patients were monitored for 1 month thereafter, with three visits as out-patients.
The following parameters were used as inclusion criteria: • Class II and above, according to MGFA classification (myasthenia gravis standard clinical classification of the disease severity score); • Age 18-70; • Seropositive for AChR antibodies; • Patients under pyridostigmine (180 mg/day) treatment without concomitant immunosuppressants; • Stable for 3 months, with no PE (plasma exchange) for 6 months; • No other major or active diseases.
Evaluation of the MG status of each patient was based on the following parameters: • (a) QMG scoring (maximum value of 9), based on the measurements of: • Fatigue in each limb (4); • Fatigue of the neck (1); • Swallowing rate (1); • Power in the hands (2); • Respirometry (1). • These measurements were taken daily, 4 times per day, and averaged for days 2-6. • (b) Patient's subjective report; • (c) Vital signs, clinical chemistry, hematology, urinalysis, ECG and physical examination, recorded daily.
16 patients with stable generalized MG requiring constant AChE inhibitors (pyridostigmine) for daily function were recruited, after approval by human ethics committees of the respective hospitals involved in the present trial (Hadassah Medical Center, Jerusalem, Israel and Greater Manchester Neurosciences Center, Hope Hospital, Salford, England).

In another data set the test system is AChE-R mRNA. The experiment in a line: In situ hybridization of AChE-R mRNA in rat muscle. Format: in vivo. The following applies: healthy and EAMG rats. Here is the method: In situ hybridization: Tissues were fixed in 4% paraformaldehyde and cut into 7 μm paraffin embedded sections. Spinal cord sections were deparaffinized, rehydrated using serial ethanol dilutions and permeabilized with proteinase K (10 μg/ml at room temp.). Slides were exposed to 5′ biotinylated, fully 2′-oxymethylated AChE-R or AChE-S-specific 50-mer cRNA probes complementary to human ACHE pseudo-intron 4 or exon 6, respectively [Grisaru et al. (2001) id ibid.]. Hybridization was performed overnight at 52° C. in hybridization mixture containing 10 μg/ml probe, 50 μg/ml yeast tRNA, 50 μg/ml heparin and 50% formamide in 375 mM Na chloride, 37.5 mM Na citrate, pH 4.5. For monkey sections, the probe was constructed according to the human AChE-R sequence; for rat sections, according to the mouse sequence. Slides were washed to remove non-hybridized probe, blocked with 1% skim milk containing 0.01% Tween-20 and 2 mM levamisole, an alkaline phosphatase inhibitor used to suppress non-specific staining and incubate with streptavidin-alkaline phosphatase (Amersham Pharmacia). Fast Red™ substrate (Roche Diagnostics) was used for detection. DAPI staining (Sigma Chemical Co., St. Louis, Mo., USA) served to visualize nuclei. Microscope images were analyzed with Image Pro Plus 4.0 (Media Cybernetics) software. […]

For 5′-CTGCCACGTTCTCCTGCACC-3′ [hEN101], the “Decrease in mean total QMG score from baseline” value turned out to be 3.0 with MG patients (day 2); 4.8 with MG patients (day 3); 5.7 in the data set on MG patients (day 4); 5.5 in the data set on MG patients (day 5); 6.0 in the data set on MG patients (day 6). In the data set on MG patients (experimental period and month following discharge), the “Vital signs, chemical chemistry, hematology, urinalysis, ECG and physical examination” value was “remained unchanged”. The Cholinergic side effects entry in the data set on MG patients (human, in vivo) is “not reported”. The “Duration of improved scores following the final dose” value in the data set with MG patients (human, in vivo) was “up to 72 hours”. Besides, the Serious adverse effects result with MG patients (human, in vivo) is given as “No serious adverse effects were observed”. The “Patients with clear symptomatic improvement” value with MG patients (oral, 10-150 μg/kg day 1, 500 μg/kg days 2-4) is listed as 15 out of 16.
Consider “5′-CTGCGATATTTTCTTGTACC-3′ (chemistry not given here) [rEN101]”, for which, in the data set on AChE-R mRNA, the “AChE-R mRNA labeling in muscle” value is reported as “almost to the limit of detection”.
